Test results reported in patent US9499550B2 (BRISTOL-MYERS SQUIBB COMPANY, priority 2012, dated 2016).
Like-named read-outs stand apart in the source and are kept apart here.

Key:
[1] = tested on: HCV genotype 1b (Con1) replicon in HUH-7 cells; experiment: HCV replicon luciferase reporter assay, genotype 1b; type: cell-based; settings: Hepatitis C virus, Huh-7, 72 h, 3 days incubation, read-out: LE_1b (EC50, range)
Method in brief: (§1)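 Replicon inhibition for both genotypes was measured as Renilla luciferase signal (EnduRen, 7.5 μM final, 2 h) after 3-day, 37° C exposure of replicon-bearing HUH-7 cells in 4% FCS DMEM, 0.5% DMSO. The 1b construct carries S1179I; the 1a H77 construct carries P1496L and S2204I. Twenty-point, 3-fold dilutions were fitted four-parametrically for EC50, and CC50 was taken from multiplexed Cell Titer-Blue.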

[2] = tested on: HCV genotype 1a (H77 strain) replicon in HUH-7 cells; experiment: HCV replicon luciferase reporter assay, genotype 1a; type: cell-based; settings: Hepatitis C virus, Huh-7, 72 h, 3 days incubation, read-out: LE_1a (EC50, range)
Method in brief: as §1

[3] = HCV genotype 1b replicon luciferase
[4] = HCV genotype 1a replicon luciferase

Row | Structure (SMILES) | EC50 [1, 3] | EC50 [2, 4] | other results
1 | CC[C@@H]1C[C@H](C)CC/C=C\[C@@H]2C[C@@]2(C(=O)NS(=O)(=O)C2(C)CC2)NC(=O)[C@@H]2C[C@@H](Oc3nc4cc(OC)c(F)cc4nc3C(F)(F)F)CN2C(=O)[C@H]1NC(=O)OC(C)(C)C(F)(F)F [Compound 4268] | – | – | EC50 ([1]; GETYPE1B, HCV genotype 1b replicon luciferase): 1.01 to 5 nM; EC50 ([2]; GETYPE1A, HCV genotype 1a replicon luciferase): 1.01 to 5 nM
2 | [2H]C([2H])([2H])C(OC(=O)N[C@@H]1C(=O)N2C[C@H](Oc3nccc4c5c(ccc34)N(C)CCO5)C[C@H]2C(=O)N[C@]2(C(=O)NS(=O)(=O)C3(C)CC3)C[C@H]2/C=C\CC[C@@H](C)C[C@H]1C)(C([2H])([2H])[2H])C(F)(F)F [Compound 5298, 1,1,1,3,3,3-hexadeutero-2-(trifluoromethyl)propan-2-yl((2R,6S,7R,9R,13aS,14aR,16aS,Z)-7,9-dimethyl-2-((4-methyl-3,4-dihydro-2H-[1,4]oxazino[2,3-f]isoquinolin-7-yl)oxy)-14a-(((1-methylcyclopropyl)sulfonyl)carbamoyl)-5,16-dioxo-1,2,3,5,6,7,8,9,10,11,13a,14,14a,15,16,16a-hexadecahydrocyclopropa[e]pyrrolo[1,2-a][1,4]diazacyclopentadecin-6-yl)carbamate] | < 5.46 nM | < 5.46 nM | –
3 | COc1ccc2c(O[C@@H]3C[C@H]4C(=O)N[C@]5(C(=O)NS(=O)(=O)C6CC6)C[C@H]5/C=C\CC[C@@H](C)C[C@@H](C)[C@H](NC(=O)OC5C[C@@H]6C[C@@H]6C5)C(=O)N4C3)nc(-c3ccc(N4CCOCC4)cc3)cc2c1 (stereo partly drawn) [Compound 5195, (1R,3r,5S)-bicyclo[3.1.0]hexan-3-yl((2R,6S,7R,9R,13aS,14aR,16aS,Z)-14a-((cyclopropylsulfonyl)carbamoyl)-2-((6-methoxy-3-(4-morpholinophenyl)isoquinolin-1-yl)oxy)-7,9-dimethyl-5,16-dioxo-1,2,3,5,6,7,8,9,10,11,13a,14,14a,15,16,16a-hexadecahydrocyclopropa[e]pyrrolo[1,2-a][1,4]diazacyclopentadecin-6-yl)carbamate] | < 5.46 nM | < 5.46 nM | –
4 | C[C@H]1CC/C=C\[C@@H]2C[C@@]2(C(=O)NS(=O)(=O)C2(C)CC2)NC(=O)[C@@H]2C[C@@H](Oc3nccc4c5c(ccc34)OCCO5)CN2C(=O)[C@@H](NC(=O)O[C@@H]2C[C@@H]3C[C@@H]3C2)[C@H](C)C1 [Compound 5248, (1R,3r,5 S)-bicyclo[3.1.0]hexan-3-yl((2R,6S,7R,9S,13aS,14aR,16aS,Z)-2-((2,3-dihydro-[1,4]dioxino[2,3-f]isoquinolin-7-yl)oxy)-7,9-dimethyl-14a-(((1-methylcyclopropyl)sulfonyl)carbamoyl)-5,16-dioxo-1,2,3,5,6,7,8,9,10,11,13a,14,14a,15,16,16a-hexadecahydrocyclopropa[e]pyrrolo[1,2-a][1,4]diazacyclopentadecin-6-yl)carbamate] | < 5.46 nM | 4.82 to 103 nM | –
5 | COc1cccc2c(O[C@@H]3C[C@H]4C(=O)N[C@]5(C(=O)NS(=O)(=O)C6(C)CC6)C[C@H]5/C=C\CC[C@H](C)C[C@@H](C)[C@H](NC(=O)OC(C)(C)C(F)(F)F)C(=O)N4C3)nccc12 [Compound 3037, 1,1,1-trifluoro-2-methylpropan-2-yl((2R,6S,7R,9S,13aS,14aR,16aS,Z)-2-((5-methoxyisoquinolin-1-yl)oxy)-7,9-dimethyl-14a-(((1-methylcyclopropyl)sulfonyl)carbamoyl)-5,16-dioxo-1,2,3,5,6,7,8,9,10,11,13a,14,14a,15,16,16a-hexadecahydrocyclopropa[e]pyrrolo[1,2-a][1,4]diazacyclopentadecin-6-yl)carbamate] | – | – | EC50 ([1]; HCV genotype 1b replicon luciferase assay, range class): < 5.46 nM; EC50 ([2]; HCV genotype 1a replicon luciferase assay, range class): 4.82 to 103 nM
